Test results from US20220152080A1 (priority 2019, published 2022).
pEC50, pIC50, pKi: −log10 of the molar value.

Tests used:
WSN/H1N1 = format: cell-based, influenza A virus; settings: read-out: EC50 (progeny virus titers)
vRNP-M1 interaction = format: cell-based, influenza A virus
[1] = test system: WSN/H1N1, PR8M/H1N1, pdm09Hamburg/H1N1, Panama/H3N2, KAN-1/H5N1, Anhui/H7N9, SC35M/H7N7, B/Lee; format: cell-based, influenza A and B viruses; settings: 15 μM, 24 h p.i., MOI 0.01, A549 or MDCKII cells, DMSO control = 100%
[2] = test system: vRNPs of WSN/H1N1, PR8M/H1N1, pdm09Hamburg/H1N1, Panama/H3N2, KAN-1/H5N1, Anhui/H7N9, SC35M/H7N7, B/Lee; format: cell-based, influenza A and B viruses; settings: 15 μM, treated 3 h p.i., fixed 9 h or 12 h p.i., MOI 5
ERK1/2 [3] = format: cell-based
GSK-3β = format: cell-based
RSK1 [4] = settings: in vitro; cited from earlier work
[5] = test system: vRNP nuclear export (viral NP protein), WSN/H1N1; format: cell-based, influenza A virus
[6] = test system: RanBP1 (Crm1 export pathway); format: cell-based
ERK1/2 [7] = experiment: TPA stimulation: nuclear localization of ERK1/2 in A549 cells; format: cell-based; settings: A549, TPA-stimulated, 1 h; unstimulated 27.99%±1.97%
Method: (§1) (A,C) A549 cells were stimulated with TPA (200 nM). The solvent DMSO served as negative control. After 1 h the cells were fixed and cellular localization of RSK2 or ERK1/2 (Alexa-561) was analyzed by epifluorescence microscopy. Nuclei were stained with Dapi. Dashed squares indicate zoom-in areas. Shown are representative epifluorescence microscopy pictures of single focal planes. Results of one out of three independent experiments are shown. Scale bar represents 50 μm.(B,D) Quantification of the cellular localization of RSK2 or ERK1/2 from (A,C). 15 epifluorescence microscopy pictures of each sample were analyzed in terms of the RSK2 localization using the ImageJ “Intensity Ratio Nuclei Cytoplasm Tool”. Results are depicted as means±SD of three independent experiments. Statistical significance was analyzed by unpaired t-test with Welch's correction (**p≤0.01).
(§2) To exclude unspecific staining of RSK2 and ERK1/2 the Raf/MEK/ERK-pathway was stimulated with TPA. It is known that the incubation with TPA leads to the activation of the Raf/MEK/ERK-pathway resulting in the nuclear localization of ERK1/2 and RSKs within minutes after the stimulation. […] After 1 h the cells were fixed and cellular localization of RSK2 or ERK1/2 (Alexa-561) was analyzed by epifluorescence microscopy. […] Statistical significance was analyzed by unpaired t-test with Welch's correction (**p≤0.01). […]

RSK2 = experiment: TPA stimulation: nuclear localization of RSK2 in A549 cells; format: cell-based; settings: A549, TPA-stimulated, 1 h; unstimulated 29.37%±1.15%
Method: as §1, §2

[8] = test system: viral NP protein (Serine residues 269 and 392); format: cell-based, influenza A virus
RSK1 [9] = format: cell-based
[10] = target: p90 ribosomal S6 kinase (N-terminal kinase domain); settings: cited from earlier work
RSK substrate p140 = settings: not that of RSK or RSK upstream kinases even at 100 μM; cited from earlier work
MCF-7 = settings: cited from earlier work

CC(C)CCN1c2nc(Nc3cc(F)c(O)c(F)c3)ncc2N(C)C(=O)C1C (centres unmarked) [BI-D1870]
pEC50 (WSN/H1N1): 5.55 | amount of M1 co-purified with Strep-PB2-vRNPs (vRNP-M1 interaction): decreased amount of M1 | reduction of progeny viral titers, all tested viruses [1]: 80 to 90% | nuclear retention of newly synthesized vRNPs, all tested viruses [2]: nuclear retention of newly synthesized vRNPs | ERK1/2 phosphorylation state (ERK1/2 [3]): induction of the ERK1/2 phosphorylation state | GSK-3ß phosphorylation (GSK-3β): concentration dependent reduction | pIC50 (RSK1 [4]): […] | nuclear retention of the viral NP protein (vRNPs) [5]: negatively affected the vRNP nuclear export

CCC(=C/[C@H](C)C/C=C/C(C)=C/[C@@H](C)C(=O)[C@@H](C)[C@H](O)[C@@H](C)C/C(C)=C/C(=O)O)/C=C/[C@@H]1OC(=O)C=C[C@@H]1C [Leptomycin B]
nuclear retention of RanBP1 [6]: nuclear retention of RanBP1 was only detected for the Leptomycin B treated samples | nuclear retention of the viral NP protein (vRNPs) [5]: highest retention rates

CCCCCCCCCCCCCC(=O)O[C@@H]1[C@@H](C)[C@@]2(O)[C@@H](C=C(CO)C[C@]3(O)C(=O)C(C)=C[C@@H]23)[C@@H]2C(C)(C)[C@]12OC(C)=O [TPA]
nuclear accumulation of ERK1/2 (ERK1/2 [7]): 48.02%±2.25% | nuclear accumulation of RSK2 (RSK2): 34.89%±0.67%

O=C(NOCC1CC1)c1ccc(F)c(F)c1Nc1ccc(I)cc1Cl [CI-1040]
phosphorylation state of NP Serine residues 269 and 392 [8]: decreased phosphorylation state | virus induced RSK activation (RSK1 [9]): blocked

O=C(O)c1ccc(F)c(F)c1Nc1ccc(I)cc1Cl [ATR-002]
nuclear retention of RanBP1 [6]: not detected | nuclear retention of the viral NP protein (vRNPs) [5]: nuclear retention

CC(=O)O[C@@H]1[C@@H](OC(C)=O)[C@@H](O)[C@H](Oc2c(-c3ccc(O)cc3)oc3cc(O)cc(O)c3c2=O)O[C@H]1C [SL0101-1]
pKi ([10]; selective, reversible, ATP-competitive): 6.00 | pIC50 ([10]; with 10 μM ATP, read-out: IC50 RSK kinase activity): 7.05 | pEC50 (WSN/H1N1): 4.98 | nuclear retention of RanBP1 [6]: not detected | block of PDB-induced cellular phosphorylation of p140 (RSK substrate p140): specifically block | inhibition of proliferation of MCF-7 (MCF-7): inhibit the proliferation of MCF-7 | nuclear retention of the viral NP protein (vRNPs) [5]: nuclear retention
